From patent publication US8222210B2 (priority 2005, dated 2012)

How the values were obtained:
[1] = test system: NK1 receptor; assay: rabbit iris sphincter smooth muscle contraction; format: cell-based, New Zealand White rabbits; details: for biological activity relative to SP: rabbit iris sphincter muscle contraction
From the text: The biological assay chosen for this study was smooth muscle contraction with the rabbit iris sphincter. […] The conformational investigations involved ^1H-NMR analyses of a set of β-MeF-containing SP analogs, and a computational study of the effects that the introduction of a β-methyl group in the Phe^7 and/or Phe^8 residues has upon an energy minimized structure of the peptide, using the helical structure of SP derived by Young et al. (1994) as a starting point for the calculations.
New Zealand White rabbits were sacrificed by an i.v. overdose of sodium pentobarbital. The eyes were then enucleated and the iris/ciliary body was isolated. Central regions of the iris sphincter muscle was then isolated and the tissue bisected, producing two iris sphincter muscle preparations. The muscle strips were connected to a Grass force-displacement transducer with an initial loading force of 100 mg placed on the muscle. The tissue was then allowed to equilibrate for 60 minutes. Contractions were recorded by a Grass 7 Physiograph. Tissues were bathed at 37° C. in a 50 ml modified Ringer's solution (90 mM NaCl, 3.6 mM KCl, 20 mM HEPES (sodium salt), 0.6 mM MgCl, 7.5 mM Na2SO4, 1.4 mM Ca-gluconate, 20 mM NaHCO3, 0.6 mM MgSO4, 0.6 mM K2HPO4 and 26 mM glucose). The Ringer's solution was gassed with 95% air/5% CO2 (pH 7.4). […] To block potential proteolytic effects the following proteolysis inhibitors were added: 1 μM thiorphan, 1 μM phosphoramidon, 1 μM captopril, 3 μg/ml leupeptin, and 3 μg/ml chymostatin.
To evaluate the viability of each muscle preparation, maximum contraction was determined by a 10^−5 M dose of carbachol at the beginning and end of each experiment. Following the initial carbachol dose, tissues were washed by three exchanges of Ringer's solutions. Previous studies have shown that this is sufficient to remove carbachol from these solutions and to return the resting tension to normal values. Each peptide was then evaluated for its ability to induce sphincter muscle contraction, and dose-response curves (from 2×10^−11 to 7×10^−7 M) were determined. A minimum of four determinations were performed for each experimental condition. The dose response curves were fit by means of a nonlinear regression analysis program (Sigma Plot®, Jandel Scientific).
Therefore, since the binding of SP to the NK1 and NK3 receptors in the rabbit iris differs by a factor of over 20, it is reasonable to assume that the contraction of the rabbit iris sphincter by βMeF-containing SP analogs primarily reflect the activation of the NK1 receptor.

[2] = test system: full thickness skin punch wounds; assay: full thickness skin punch wound healing in a rat model (topical, AQUAPHOR); format: in vivo, Sprague-Dawley rats; details: for percentage decrease of the wound area versus control wounds (paired T-test): SP p<0.025, selenocystamine at the 0.05 level; for % decrease in wound size (wound area day 6 compared with day 0): rat punch wound, topical once a day, SP 0.05%, selenocystamine 10 ug Se/ml
Description: In addition, selenocystamine was tested as a potential wound treatment at the same time.
Twenty-one male Sprague-Dawley rats weighing between 300-350 g were used in this study. The rats were housed in the temperature controlled vivarium at Texas Tech Health Science Center with a 12-hour alternating light cycle, and were provided water and rat chow ad libitum. Animals were allowed several days of adjustment upon arrival before the surgery to get rehydrated and familiar with the environment. The study protocol was approved by the Texas Tech University Health Sciences Center Animal Care and Use Committee which assured that the animals received humane care.
On the day of the surgery (day 0), the rats were weighed and anesthetized with 1 ml/kg intraperitoneal (IP) injection of the solution made up of 3 parts XYLAZINE® and 7 parts of KETASET®. The animals' backs and necks were shaved and prepared aseptically. Lack of response to tail pinch and absence of a righting reflex were used as indications that anesthesia was adequate. Supplemental anesthetic was administered IP as necessary to maintain an adequate anesthesia.
A 7 mm-diameter punch (George Tiemann & Co.) was used to introduce the punch wound. The procedure was to fold the skin along the sagittal axis and put it down left or right side (rotate animal by animal) against a hard surface, then to thrust the punch through the two layers of skin. In this way, two identical punch wounds were obtained. Four wounds were introduced on each animal. The four wounds were arranged in two columns parallel to the sagittal axis and two rows parallel to the transverse axis.
After the wound procedure, three different treatments were assigned to the wounds. […] The two under were assigned selenocystamine treatment. For the control wound, a drop of normal saline was applied followed by a layer of AQUAPHOR™ to cover the wound. For the SP wound, a drop of 0.05% (0.5 mg/ml) SP water solution was applied followed by a layer of 0.05% (0.5 mg/g) SP-AQUAPHOR™ to cover the wound. For the selenocystamine wounds, a drop of selenocystamine water solution (10 ug Se/ml) was applied to each wound followed by a layer of selenocystamine-AQUAPHOR™ ([…]) to cover the wound. Then gauze and tape were applied to secure the wound. The animals were held under warming lights and observed until they were fully recovered from the anesthesia and then were returned to the vivarium. All the treatment agents and placebo were stored in a refrigerator. Dressing changes and treatments were performed once a day until the animals were sacrificed on day 6. The assignments and dosage of the treatments were as described above.
Following the surgery, the wounds were measured in two dimensions: sagittal and transverse. Photographs were taken using a PENTAX® ESPIO 928 camera and Kodak® ISO 200 color film. After the animals were sacrificed on day 6, the eschars covering the wounds were removed. Then the wounds were again measured in two dimensions, and photographs were taken.
The animals were sacrificed on day 6 after the surgery by euthanasia with […]® (Sodium Pentobarbital, 7.9% isopropanol, euthanasia solution). The entire wound plus a 1 mm margin of normal skin from each of the test and control wound sites on each animal was excised and preserved in buffered formalin.
The product obtained by multiplying the two measurements of each wound was referred to as the area of the wound. The percentage of the decrease of the wound area on day 6 compared with day 0 was used to evaluate the rate of healing. Since the exact time of wound healing was difficult to determine, day 6 was chosen.
Mean and standard deviations were determined on the difference of the percentage of the wound area decrease between each treatment and the control. Significant differences between treatments and the control were determined by paired T-test to see if the percentage of the decrease in wound area was greater for the treated wounds than for the control wound. […]

[3] = test system: cellular growth; assay: cellular growth promoting activity (description); format: cell-based
[4] = biological target: NK1 receptor (Homo sapiens, UniProt P25103); details: cited from earlier work
NK1 receptor (Homo sapiens, UniProt P25103), sequence (P25103 whole entry, species assumed): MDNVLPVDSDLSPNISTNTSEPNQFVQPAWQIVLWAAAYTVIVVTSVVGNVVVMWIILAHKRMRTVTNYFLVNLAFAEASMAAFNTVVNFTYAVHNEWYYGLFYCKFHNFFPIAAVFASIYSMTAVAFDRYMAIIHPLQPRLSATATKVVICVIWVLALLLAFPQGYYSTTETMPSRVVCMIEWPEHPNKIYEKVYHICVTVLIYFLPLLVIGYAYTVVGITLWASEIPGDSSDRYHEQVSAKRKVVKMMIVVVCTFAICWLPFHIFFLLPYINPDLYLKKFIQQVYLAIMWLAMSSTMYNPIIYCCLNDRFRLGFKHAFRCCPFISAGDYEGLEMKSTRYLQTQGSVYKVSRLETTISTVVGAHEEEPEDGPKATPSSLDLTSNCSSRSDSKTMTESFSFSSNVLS

[5] = test system: full thickness wound; assay: full thickness 7 mm punch wound in the back of rats, hyaluronic acid vehicle (FIG. 10); format: in vivo; details: after 6 days, 16 rats, both wounds received hyaluronic acid vehicle
From the text: FIG. 10 represents the percent healing after 6 days for a full thickness wound in the back of 16 different rats. The initial wound size was a 7 mm punch wound. Each rat received two wounds, a control (no SP) and an SP treated wound. Both wounds received a hyaluronic acid vehicle.
Supplemental growth factors have the ability to accelerate wound healing in a variety of experimental animal models (EE). This has even led to clinical trials. However, the human studies have not been as successful as the animal models. Due to the complexity of the interaction of different growth factors, it is likely that the right combination of different growth factors has not been explored.

[6] = test system: NK1 and NK3 receptors; details: rabbit iris; cited from earlier work

Molecule: 7R,8R-(βMeF)2SP: Substance P analog with R-β-methylphenylalanine at positions 7 and 8
- biological activity relative to SP [1]: the least active analog
- biological activity relative to SP ([1]; listed as 7R,8R-(β-MeF)2SP): diminish the biological activity by a factor of ten

Molecule: 7R,8S-(βMeF)2SP: Substance P analog with R-β-methylphenylalanine at position 7 and S- at position 8
- biological activity relative to SP [1]: most active disubstituted SP analogs
- biological activity relative to SP ([1]; listed as 7R,8S-(β-MeF)2SP): enhance the activity

Molecule: 7R-(βMeF)SP: Substance P analog with R-β-methylphenylalanine at position 7
- biological activity relative to SP [1]: equipotent to SP

Molecule: 7S,8R-(βMeF)2SP: Substance P analog with S-β-methylphenylalanine at position 7 and R- at position 8
- biological activity relative to SP [1]: equipotent (to SP)
- biological activity relative to SP ([1]; listed as 7S,8R-(β-MeF)2SP): do not significantly alter the activity

Molecule: 7S,8S-(βMeF)2SP: Substance P analog with S-β-methylphenylalanine at positions 7 and 8
- biological activity relative to SP [1]: most active disubstituted SP analogs
- biological activity relative to SP ([1]; listed as 7S,8S-(β-MeF)2SP): enhance the activity

Molecule: 7S-(βMeF)SP: Substance P analog with S-β-methylphenylalanine at position 7
- biological activity relative to SP [1]: slightly more active than SP

Molecule: 8R-(βMeF)SP: Substance P analog with R-β-methylphenylalanine at position 8
- biological activity relative to SP [1]: the most active SP analog
- biological activity relative to SP ([1]; listed as R-β-MeF into position 8 of SP): four-fold enhancement

Molecule: 8S-(βMeF)SP: Substance P analog with S-β-methylphenylalanine at position 8
- biological activity relative to SP [1]: the least active of the monosubstituted analogs
- biological activity relative to SP ([1]; listed as S-β-MeF into position 8 of SP): ten-fold reduction

Molecule: NCC[Se][Se]CCN [selenocystamine, reference compound]
- percentage decrease of the wound area versus control wounds (paired T-test) ([2]; day 6): not significantly higher than the control
- % decrease in wound size (wound area day 6 compared with day 0) ([2]; day 6): 31.8±18.3%
- wound enlargement (one wound of the group) ([2]; six day period): 2.9%

Molecule: QFFGLM (SEQ ID NO:8) (listed as Homo sapiens) [SP6-11, reference compound]
- cellular growth promoting activity [3]: active in promoting cellular growth
- activity as % of that found for the whole SP molecule [4]: 50-90%

Molecule: RPKPQQFFGLM (SEQ ID NO:1) [SP]
- percentage decrease of the wound area versus control wounds (paired T-test) ([2]; day 6): significantly higher than that of the control wounds
- % decrease in wound size (wound area day 6 compared with day 0) ([2]; day 6): 41.6±15.0%
- wound with the greatest decrease in size ([2]; single wound of the treatment group, day 6): 66.7%
- control wounds showing more percent healing than the SP wound on the same rat [5]: 4 out of 16
- factor by which binding to NK1 and NK3 receptors differs [6]: over 20
- doses producing a rapid increase in the force of contraction ([1]; rabbit iris sphincter muscle): greater than 10^−10 M
- maximum effective dose ([1]; rabbit iris sphincter muscle): 10^−7 M

Molecule: SEQ ID NO:9: substitution peptide where norleucine has been substituted for the C-terminus methionine in Substance P (RPKPQQFFGLX; (11)..(11) Norleucine; listed as Homo sapiens)
- cellular growth promoting activity [3]: enhanced activity under at least some treatment conditions
